Laboratory results reported in a melting point compilation (Tetko et al.; mined from patent text by program, amines drawn as free bases though some values may be those of a salt).

With `Brc1cccc2[nH]c(-c3ccccc3)c(CCN3CCCCC3)c12` the melting point was greater than 230 °C.
For `COc1ccc(CNC(N)=O)cc1OC`, the melting point was 172 to 173 °C.
`O=C(CN1CCN2c3ccccc3Cn3cccc3C2C1)c1ccc(Cl)cc1` (configuration not stated) gave a melting point of 71 to 74 °C.
Work on `CCCOc1cccc(-c2nn(C(C)c3oc4ccccc4c(=O)c3-c3cccc(F)c3)c3ncnc(N)c23)c1` (configuration not stated) yielded a melting point of 178 to 182 °C.
In the case of `CC(C)OC(=O)Nc1cccc(O)c1`, the melting point is reported as 75 to 77 °C.
In the case of `O=C(O)C[C@@H]1Cc2cccc3c2[C@@H](CCC3)C1` (relative stereo), the melting point is reported as 115 to 116 °C.
For `Cc1cccc(C(N)=NO)c1C`, the melting point was 110 to 111 °C.
Compound `CCCc1nc2c(N)nc3ccccc3c2n1CCCC(CC(C)C)=NO` has a melting point of 207 to 209 °C.
`CCOC(=O)C1(O)COc2cc3ccc(=O)[nH]c3cc2C1=O` (configuration not stated) showed a melting point greater than 300 °C.
`N#Cc1ccc(N2CCN(Cc3cnc4c(c3)NC(=O)[C@@H]3CCCN43)CC2)cc1` showed a melting point of 252 °C.
`O=C(O)c1cc(OCc2ccccc2)c(OCc2ccccc2)c(OCc2ccccc2)c1` showed a melting point of 194 to 195 °C.
For `N#Cc1ccc2c(c1)Nc1ccc(Cl)cc1S2`, the melting point was 235 °C.
`CNN(NC)C(=O)Nc1cccc2c1C(=O)c1c-2n[nH]c1-c1cc(C)sc1C` showed a melting point of 252 °C.
For `CC1CCC(C(=O)N(C)C)=C2NC=C(C(N)=O)C(=O)N21` (configuration not stated), the melting point was 220 °C.
Compound `Cc1c(CO)oc2ccc([N+](=O)[O-])cc12` has a melting point of 149 to 150 °C.
In the case of `CC(CCCc1ccc(F)cc1)c1cc(O)c2c(c1)OC(C)(C)C1=C2CN(CC(=O)NC(N)=O)CC1` (configuration not stated), the melting point is reported as 133 to 134 °C.
For `COc1cccc(SC2CC(=O)N2)c1` (configuration not stated), the melting point was 55 to 56 °C.
Work on `CCOC(=O)C(=CNc1ccc(OC)c(F)c1)C(=O)OCC` yielded a melting point of 63 °C.
Work on `Cc1cn(NCCCc2ccncc2F)c2ccc(OC(=O)NN3CCc4ccccc4C3)cc12` yielded a melting point of 157 to 160 °C.
For `Cc1noc(NS(=O)(=O)c2c(Cc3ccc4c(c3)OCO4)sc3ccccc23)c1Cl`, the melting point was 178 to 181 °C.
Compound `CN1C(=O)CN=C(c2cccc(C(F)(F)F)c2)c2ccccc21` has a melting point of 121 to 122 °C.
In the case of `O=C(CSc1cccc(Br)c1)c1ccc2[nH]c3ncc(Cl)cc3c2c1`, the melting point is reported as 229 to 230 °C.
In the case of `OC1(c2ccc(Cl)c(C(F)(F)F)c2)CCN(CCCc2nnc3n2CCCCC3)CC1`, the melting point is reported as 151 °C.
With `CSc1cc2n(c1C(=O)c1ccc(Cl)cc1)CCC2C(=O)O` (configuration not stated) the melting point was 200 to 201 °C.
Compound `O=C(O)CCCCCCCNS(=O)(=O)c1ccc(Cl)cc1` has a melting point of 122 to 124 °C.
`NC(=O)c1nn(-c2ccc(S(N)(=O)=O)cc2)c2ccncc12` gave a melting point of 301 to 302 °C.
For `CCC1C(=O)c2cc(OC)c(Cl)c(Cl)c2C1=O` (configuration not stated), the melting point was 153 to 154 °C.
Compound `Cc1sccc1-c1nc2c3ccsc3ccn2c1N` has a melting point of 161 to 162 °C.
`COc1cc(OC)c2cc(-c3ccc([N+](=O)[O-])cc3)oc2c1` showed a melting point of 192 to 193 °C.
With `CC(C)(C(=O)O)c1nnc2ccc(NCCCN3CCC(OC(c4ccccc4)c4ccccc4)CC3)nn12` the melting point was 155 to 157 °C.
Work on `CC(C)(Br)C1CC(=O)OC1OCc1cccc(Oc2ccccc2)c1` (configuration not stated) yielded a melting point of 60 °C.
`COc1ccccc1C1=NN(C(=O)c2cccnc2)CC1C` (configuration not stated) gave a melting point of 124 to 125 °C.
For `O=C(NCc1ccc([N+](=O)[O-])cc1)C(F)(F)F`, the melting point was 97 to 98 °C.
In the case of `CCOC(=O)C(C#N)=CNc1ccc(OC)c(OC)c1`, the melting point is reported as 150 to 155 °C.
Compound `CC12CC(=O)C3C(CCC4C(Br)C(O)CCC43C)C1CCC2C(=O)CBr` (configuration not stated) has a melting point of 164 to 166 °C.
`O=C(O)C1CCc2c(c(=O)c3cccnc3n2-c2cccc(Cl)c2)C1` (configuration not stated) showed a melting point of 279 to 280 °C.
`COc1c(NC(=O)c2ccc(-c3ccc(F)cc3)cc2)ccc2cc(CN3CCCC3)cnc12` gave a melting point of 142 to 144 °C.
`COC(=O)N(O)c1cccnc1Oc1ccccc1` gave a melting point of 140 °C.
Work on `CCn1cc2c3c(cccc31)CN(C(=O)OCc1ccccc1)C2` yielded a melting point of 112 to 114 °C.
With `CC(O)c1ccc(C2=CCCCC2)cc1` (configuration not stated) the melting point was 60 to 62 °C.
In the case of `CC(C)Oc1ccnc2c1c(I)cn2S(=O)(=O)c1ccccc1`, the melting point is reported as 151 to 153 °C.
`Fc1ccc(C2(Cn3nc[nH]c3=S)OC2c2ccccc2Cl)cc1F` (configuration not stated) showed a melting point of 165 °C.
`COc1ccc(COc2ccc(CC(=O)O)cc2Cl)cc1` gave a melting point of 150 to 152 °C.
`N#CC=Cc1ccc(Cl)cc1C(=O)c1ccccc1Cl` gave a melting point of 137 to 139 °C.
`Clc1ccc(OCc2ccccc2)c(Br)c1` gave a melting point of 49 to 50.5 °C.
With `O=C(NS(=O)(=O)c1cccc([N+](=O)[O-])c1)c1ccccc1Cl` the melting point was 135 °C.
With `O=C(Nc1c(-c2ccccc2F)nnn1CSc1ccccc1)C(Cl)C1CCC1` (configuration not stated) the melting point was 103 to 104 °C.
In the case of `O=C(Nc1ccccc1F)c1ccccn1`, the melting point is reported as 112 to 115 °C.
Work on `CC(=O)NC(CO)C(O)c1ccc(C=Cc2csc3ccccc23)s1` (configuration not stated) yielded a melting point of 144 to 145 °C.
With `CCCc1nn(-c2ccc(C(F)(F)F)cn2)cc1CCCOc1c(C#N)cccc1CC(=O)O` the melting point was 146 to 147 °C.
With `CC(=O)Nc1c(C)c(C)c2c(c1[N+](=O)[O-])CC(C)(C)O2` the melting point was 203 °C.
Compound `O=C(NC1CC1)C1CC(=O)N(Cc2ccccc2)C1` (configuration not stated) has a melting point of 94 to 96 °C.
With `Cc1cc(-c2nc3cc(-c4ccncc4)cc(N)n3n2)oc1C` the melting point was 275 to 277 °C.
With `Cc1c2c(cc3c(=O)c4ccccc4oc13)CC(CO)O2` (configuration not stated) the melting point was 242 to 243 °C.
`CCCc1c(C(=O)C=C(C)C)c2ccc(C(N)=O)cc2n1Cc1cc2c(cc1Cl)OCO2` showed a melting point of 227 to 229 °C.
For `COC(=O)c1ccc([N+](=O)[O-])cc1C#CC(C)(C)C`, the melting point was 88 to 89 °C.
Work on `CN(Cc1cn(C23CC4CC(CC(C4)C2)C3)nn1)Cc1cccs1` yielded a melting point of 66 to 68 °C.
Work on `CCCc1nc(C(C)(C)O)c(C(=O)OCC)n1Cc1ccc(-c2ccccc2C(=O)NC(C)(C)C)cc1` yielded a melting point of 145 to 146 °C.
Work on `CCOC(=O)c1cn(-c2nsnc2C)c2nc(Cl)c(F)cc2c1=O` yielded a melting point of 192 °C.
For `ON=Cc1cc(-c2ccc(O)cc2)c2occc2c1`, the melting point was 192 to 194 °C.
For `OC(c1cccc2nc3n(c12)CCCN3c1ccc(Cl)cc1Cl)C1CC1` (configuration not stated), the melting point was 208 to 209 °C.
`Cc1nc(-c2ccccc2)c(NC(=O)Nc2ccccc2)s1` showed a melting point of 199 to 201 °C.
For `CCOP(=O)(OCC)c1ccc(Oc2ccccc2[N+](=O)[O-])cc1`, the melting point was 150 °C.
Work on `CC(C)Oc1cc(-n2nc(C(F)(F)F)[nH]c2=O)c(Cl)cc1Cl` yielded a melting point of 160 to 161 °C.
`COc1cc(CCCC2SC(=O)NC2=O)ccc1OCc1csc(CCc2ccccc2)n1` (configuration not stated) gave a melting point of 104 to 105 °C.
Compound `O=[N+]([O-])c1ccc2c(c1)N(C1CC1)CNS2(=O)=O` has a melting point of 166 to 169 °C.
`O=c1c2ncn3c2n(c(=O)n1Cc1ccc([N+](=O)[O-])cc1)CC=C3c1cccc(C(F)(F)F)c1` showed a melting point of 230 to 232 °C.
`CSc1ccc(COc2cccc(C(=O)Nc3ccc(C#N)cc3)c2)cc1` showed a melting point of 147 to 148 °C.
`Fc1c(Cl)cccc1/C=C/c1noc(C(Cl)(Cl)Cl)n1` showed a melting point of 37 to 38 °C.
In the case of `O=c1[nH]c2ccccc2c(=O)c(Cc2ccccc2)c1O`, the melting point is reported as 199 to 200 °C.
In the case of `CCOC(=O)CCn1c(=O)c2ccccc2n(CCCCCl)c1=O`, the melting point is reported as 71 to 72 °C.
Compound `CCN1C(=O)N(c2c(F)c(OC)cc(OC)c2F)Cc2cnc(SC)nc21` has a melting point of 165 to 168 °C.
`CC1(C=O)COC2(CCCCCCCCCCC2)OO1` (configuration not stated) showed a melting point of 88 to 89 °C.
`COc1ccc(-n2nc(C(F)(F)F)cc2CO)cc1` showed a melting point of 79 °C.
`CCC(CC)C(NS(=O)(=O)c1ccc(Cl)s1)c1ncnn1Cc1ccc(OC)cc1` (configuration not stated) showed a melting point of 136 to 137 °C.
`Nc1ccc(-c2ccc3nnn(Cc4ccc5ncccc5c4)c3n2)cn1` showed a melting point of 194 to 197 °C.
In the case of `O=c1cc(-c2ccccc2)cc(-c2ccccc2)[nH]1`, the melting point is reported as 209 to 212 °C.
Work on `CNc1nc(CCN2CCC(Nc3nc4ccccc4n3Cc3ccc(F)cc3)CC2)c(C)s1` yielded a melting point of 182 °C.
`CN(C)c1ccc(-c2[nH]c(-c3ccc([N+](=O)[O-])cc3)nc2C(=O)Nc2nccs2)cc1` gave a melting point of 250 to 251 °C.
`COC(=O)/C(=C/c1ccc(OCc2ccccc2)c([N+](=O)[O-])c1)N=[N+]=[N-]` gave a melting point of 95 to 96 °C.
In the case of `Cc1nc2cccc(N)c2s1`, the melting point is reported as 100 to 101 °C.
With `O=CC(=Cc1ccccc1)c1ccc(F)cc1` the melting point was 87 to 94 °C.
Compound `CCCCc1c(C(=O)O)cc(Cl)cc1[N+](=O)[O-]` has a melting point of 218 to 220 °C.
Compound `CC(C)(C)OC(=O)N1CCN(C(=O)OCc2ccccc2)CC1` has a melting point of 90.5 to 91.5 °C.
For `COc1ccc(-c2nnc3c4ccccc4c(O)nn23)cc1`, the melting point was 307 to 309 °C.
In the case of `COC(=O)c1ccc(-c2cn(Cc3cccnc3)c3c2CCc2nc4c(nc2-3)C(C)(C)CCC4(C)C)cc1`, the melting point is reported as 245 to 247 °C.
Work on `COc1ccc(-c2nc(C#N)cn2-c2ccc(OC)cc2)cc1` yielded a melting point of 132 to 134 °C.
Work on `CCCCN1C(=O)NC(Cc2cc(OC)c(OC)cc2OC)C1=O` (configuration not stated) yielded a melting point of 122 °C.
Compound `COc1cccc(NC(=O)NC2N=C(C)c3ccccc3N(CC(=O)N(C)c3ccccc3)C2=O)c1` (configuration not stated) has a melting point of 238 to 239 °C.
`CS(=O)(=O)c1ccc(-n2nc(-c3ccc(O)cc3O)c3ccc(O)cc32)cc1` showed a melting point of 94 to 96 °C.
With `C[C@H](NC(=O)c1c[nH]c2ncc(-c3cccs3)nc12)C(C)(C)C` the melting point was 311 to 312 °C.
With `CON(C)C(=O)[C@H]1CC[C@H](NC(=O)OC(C)(C)C)CC1` the melting point was 130 to 140 °C.
In the case of `C[C@H]1CC[C@H]2C(C)(C)[C@H](OS(=O)(=O)c3ccccc3)CC[C@]23Oc2c(c(O)cc4c2CNC4=O)C[C@]13C`, the melting point is reported as 160 to 162 °C.
For `CC(=O)Oc1ccccc1C(=O)Nc1ccc2oc(C)nc2c1`, the melting point was 169 to 171 °C.
Compound `O=Cc1ccc(S(=O)(=O)CCCl)cc1Cl` has a melting point of 117 to 119 °C.
Work on `Cc1oc(-c2ccccc2)nc1CCOc1ccc(C#N)cc1` yielded a melting point of 119 to 120 °C.
For `O=C(Nc1ccc(-n2nc(C(F)(F)F)cc2C(F)(F)F)cc1)c1cc2cc(F)ccc2[nH]1`, the melting point was 253 to 255 °C.
Compound `Cn1nnnc1C(CBr)=C(c1ccc(F)cc1)c1ccc(F)cc1` has a melting point of 159 to 160 °C.
In the case of `CC(O)c1cc2c3ccccc3[nH]c(=O)n2n1` (configuration not stated), the melting point is reported as 242 to 245 °C.
Compound `Cc1cc(C2(C(F)(F)F)CC(c3ccc(Cl)cc3)=NO2)ccc1N` (configuration not stated) has a melting point of 118 to 119 °C.
Work on `CS(=O)(=O)N1CCN([C@@H](CNS(=O)(=O)c2ccc(OCc3cccc4ccccc34)cc2)C(=O)NO)CC1` yielded a melting point of 148 °C.
With `C=C(CN(C)C)C(O)c1ncc2c(c1O)COC2c1ccccc1` (configuration not stated) the melting point was 210 to 215 °C.
